{"source": "patent US11933866B2", "about": "“Magnetic resonance maps for analyzing brain tissue” (Tel HaShomer Medical Research Infrastructure and Services …, priority 2013, dated 2024)", "key": {"[1]": {"test_system": "cerebellar metastasis of breast cancer", "experiment": "Delayed contrast extravasation MRI maps before and after Avastin treatment, patient case (Example 15)", "type": "in vivo, human", "conditions": "one patient, 2 years after stereotactic radiosurgery; maps before vs after Avastin treatment", "excerpt": "There is current dispute weather Avastin affects active tumor or only treatment effects.\nA patient with cerebellar metastasis of breast cancer was recruited 2 years after stereotactic radiosurgery with suspected radiation necrosis."}, "[2]": {"test_system": "recurrent GBM", "experiment": "Conventional MRI and maps follow-up of a recurrent GBM patient on Bevacizumab (Example 3)", "type": "in vivo, human", "conditions": "one patient, three months after initiation of Bevacizumab treatment", "excerpt": "Referring now to FIG. 8, a person with recurrent GBM was recruited 7 month after diagnosis prior to initiation of Bevacizumab treatment. At diagnosis the patients was operated on and received chemoradiation followed by TMZ. Six months later, at progression, the patient underwent a second resection and was recruited to the present Bevacizumab study 1 month after the second surgery, prior to initiation of the Bevacizumab treatment. At this point their enhancing lesion consisted of nearly 50% tumor according to the maps. […] Following this scan the patient was treated with re-irradiation (in parallel with continuing Bevacizumab) and was stabilized. […] The patient lived another ˜7 months after this last MRI scan."}, "[3]": {"test_system": "glioblastoma", "conditions": "glioblastoma patients at progression after standard therapy; results of 2 studies; cited from earlier work"}, "[4]": {"test_system": "glioblastoma", "conditions": "TMZ during radiotherapy and for six months post radiotherapy; cited from earlier work"}}, "data": [{"molecule": "Bevacizumab", "values": [{"measurement": "response of tumor and radiation necrosis components in the maps", "setting": "[1]", "value": "remarkable response of both components"}, {"measurement": "conventional MRI finding", "setting": "[2]", "value": "showed improvement"}, {"measurement": "blue/tumor volume in the maps", "setting": "[2]; consistent with clinical deterioration", "value": "significantly larger blue/tumor volume"}, {"measurement": "tumor size", "setting": "[3]", "value": "reduced tumor size in some glioblastoma patients"}]}, {"molecule": "Cn1nnc2c(C(N)=O)ncn2c1=O", "note": "[temozolomide]", "values": [{"measurement": "additional toxicity", "setting": "[4]", "value": "minimal additional toxicity"}]}]}
